Experiment [1] has as its system plasmid (pcDNA3.1 empty vector) double strand DNA. The experiment is described as follows: Gel shift assay of DNA supercoiling disturbance by cisplatin. The format is biochemical. The note with it: 37° C. for 60 minutes; for effect on disturbance of double strand DNA supercoiling by cisplatin (CDDP): preincubation of plasmid with Na2Sn, then 60 μM CDDP. How it is done:
To quantify the degree of DNA intercalation by cisplatin (CDDP) that disturbs DNA supercoiling, 1 μg of plasmid (pcDNA3.1 empty vector, #V79020, Invitrogen) was mixed with a predetermined concentration of Na2Sn (n=an integer of 1 to 4), and preincubated in 10 mM phosphate-buffered saline (PBS, pH6.0) at room temperature for 5 minutes. Then, a CDDP solution was added to the solution to obtain a final concentration of 60 μM. Thereafter, the mixed solution was incubated at 37° C. for 60 minutes. After the incubation, the reaction products in the mixed solution were separated by electrophoresis using 1% agarose gel for determination of the DNA secondary structure.
It was previously shown that cisplatin can disturb DNA supercoiling by being intercalated between bases of double-stranded DNA structures and causing structural changes (Non-patent Document 4). In this study, the present inventors determined in vitro that cisplatin induced change in the bulk molecular volume of supercoiling DNA, and the bulk molecular volume was recovered by addition of polysulfide (FIG. 3).
This can be inferred because of the enhanced reducing power of the polysulfide with the increase in the number of sulfur atoms.

Experiment [2] deals with ovarian serous carcinoma (SC). The experiment is described as follows: Effectiveness of the anticancer drug in ovarian serous carcinoma. Type of experiment: in vivo.
In experiment [3] the test system is ovarian clear cell carcinoma (CCC). The experiment is described as follows: Effectiveness of the anticancer drug in ovarian clear cell carcinoma. Type of experiment: in vivo.

For `[Na+].[Na+].[S-]S[S-]` [Na2S3], the “effect on disturbance of double strand DNA supercoiling by cisplatin (CDDP)” value (“effect on disturbance” for short) in experiment [1] is “attenuated”.

In the case of `[Na+].[Na+].[S-2]` [Na2S], the “effect on disturbance” value in experiment [1] is recorded as “attenuated”. Consider `[Na+].[Na+].[S-]SS[S-]` [Na2S4], for which the “effect on disturbance” value in experiment [1] was “attenuated”. With `N.N.[Cl][Pt][Cl]` [cisplatin], the “change in the bulk molecular volume of supercoiling double strand DNA” value in experiment [1] (CDDP final concentration 60 μM, 1 μg plasmid, 1% agarose gel) is “increased the bulk molecular volume of double strand DNA”. Besides, the “effectiveness as an anticancer drug” value in experiment [2] is “more effective”; in experiment [3] it was “less effective”. In the case of `[Na+].[Na+].[S-][S-]` [Na2S2], in experiment [1], the “effect on disturbance” value is “attenuated”.

The values above are taken from US20220365087A1, “METHOD FOR ACQUIRING DATA FOR DISTINGUISHING PRESENCE OF CANCER CELLS AND/OR DISTINGUISHING ANTICANCER DRUG RESISTANCE, METHOD FOR ACQUIRING PREDICTION DATA, USE OF DISTINCTION MARKER IN SAME, AND DISTINGUISHING KIT” (KEIO UNIVERSITY, priority 2019, published 2022).
